# Laboratory results from ChEMBL document CHEMBL5325504, “Bioactive Indole Alkaloid from Aspergillus amoenus TJ507 That Ameliorates Hepatic Ischemia/Reperfusion Injury” (J Nat Prod, 2023).
# Activity calls are given as the source filed them. The calls are words filed in the database; no cut-off is given here.
# What was measured:
# AML12 [1] = assay: Cytoprotective activity against CoCl2-induced mouse AML12 cells assessed as increase in cell survival rate by CCK8 method; type: functional, cell-based
# Mus musculus [2] = species on record: Mus musculus; assay: Hepatoprotective activity against ischemia-reperfusion injury mouse model assessed as reduction in MPO expression level by IHC staining based analysis; type: functional, organism-based
# Mus musculus [3] = assay: Hepatoprotective activity against ischemia-reperfusion injury mouse model assessed as reduction in ALT level in serum at 10 mg/kg, ip administered once daily for 3 days; type: functional, organism-based; conditions: time 3.0 day
# AML12 [4] = assay: Cytoprotective activity against CoCl2-induced mouse AML12 cells assessed as increased cell survival rate at 1.25 to 10 uM by CCK8 assay; type: functional, cell-based; conditions: dose 1.25-10 µM
# Mus musculus [5] = species on record: Mus musculus; assay: Hepatoprotective activity against ischemia-reperfusion injury mouse model assessed as reduction in necrocytosis by H and E staining based analysis; type: functional, organism-based
# Mus musculus [6] = assay: Hepatoprotective activity against ischemia-reperfusion injury mouse model assessed as reduction in AST level in serum at 10 mg/kg, ip administered once daily for 3 days; type: functional, organism-based; conditions: time 3.0 day
# Mus musculus [7] = species on record: Mus musculus; assay: Hepatoprotective activity against ischemia-reperfusion injury mouse model assessed as reduction in liver ecchymosis by H and E staining based analysis; type: functional, organism-based
# Mus musculus [8] = species on record: Mus musculus; assay: Hepatoprotective activity against ischemia-reperfusion injury mouse model assessed as reduction in cleaved caspase-3 by IHC staining based analysis; type: functional, organism-based
# Mus musculus [9] = assay: Hepatoprotective activity against ischemia-reperfusion injury mouse model assessed as reduction in LDH level in serum at 10 mg/kg, ip administered once daily for 3 days; type: functional, organism-based; conditions: time 3.0 day
# Mus musculus [10] = species on record: Mus musculus; assay: Hepatoprotective activity against ischemia-reperfusion injury mouse model assessed as reduction in leukocyte infiltration by H and E staining based analysis; type: functional, organism-based
# Mus musculus [11] = species on record: Mus musculus; assay: Hepatoprotective activity against ischemia-reperfusion injury mouse model assessed as reduction in translocation of HMGB1 from nucleus to cytoplasm by IHC staining based analysis; type: functional, organism-based
# Mus musculus [12] = species on record: Mus musculus; assay: Hepatoprotective activity against ischemia-reperfusion injury mouse model assessed as reduction in TUNEL positive cells by TUNEL staining based analysis; type: functional, organism-based
# AML12 [13] = assay: Cytotoxicity against mouse AML12 cells assessed as reduction in cell survival rate at by CCK8 assay; type: toxicity, cell-based
structure (smiles),measurement,setting,value
C=CC(C)(C)[C@@]1(C[C@@H]2NC(=O)[C@]3(OC)CCCN3C2=O)C(=O)Nc2c1ccc1c2C=CC(C)(C)O1,Activity,AML12 [1],inactive
CC1(C)C=Cc2c(ccc3c2N(O)C(=O)[C@@]32C[C@@]34NC(=O)[C@]5(CCCN5C3=O)C[C@H]4C2(C)C)O1,Activity,AML12 [1],inactive
C=CC(C)(C)[C@]1(C[C@@H]2NC(=O)[C@@H]3CCCN3C2=O)C(=O)Nc2c1ccc(O)c2CC=C(C)C,Activity,AML12 [1],inactive
CC1(C)C=Cc2c(ccc3c2NC(=O)[C@@]32C[C@@]34NC(=O)[C@]5(CCCN5C3=O)C[C@H]4C2(C)C)O1,Activity,AML12 [1],inactive
C=CC(C)(C)[C@]1(C[C@@H]2NC(=O)[C@]3(OC)CCCN3C2=O)C(=O)Nc2c1ccc1c2C=CC(C)(C)O1 [NOTOAMIDE Q],Activity,Mus musculus [2],Active
same,Activity,Mus musculus [3],Active
same,Activity,AML12 [4],Active
same,Activity,Mus musculus [5],Active
same,Activity,Mus musculus [6],Active
same,Activity,Mus musculus [7],Active
same,Activity,Mus musculus [8],Active
same,Activity,Mus musculus [9],Active
same,Activity,AML12 [1],Active
same,Activity,Mus musculus [10],Active
same,Activity,Mus musculus [11],Active
same,Activity,Mus musculus [12],Active
same,Activity,AML12 [13],Non-Toxic
C=CC(C)(C)C(=O)Nc1c(C(=O)C[C@@H]2NC(=O)[C@@H]3CCCN3C2=O)ccc(O)c1CC=C(C)C,Activity,AML12 [1],inactive
C/C=C1\NC(=O)[C@H](Cc2c[nH]c3ccccc23)N(C)C1=O,Activity,AML12 [1],inactive
